Experimental data taken from publication doi:10.1101/685669v2 (biorxiv, 2020).

What was measured:
Test in all cases: fluorogenic peptidase assay
Assay type in all cases: biochemical
ecClpXP [1] = target: T1, ecClpXP (Escherichia coli, UniProt P0A6G7+P0A6H1); conditions: 0.1 mM Suc-LY-AMC; competitive
ecClpXP [2] = target: T1, ecClpXP; conditions: substrate Suc-LY-AMC; competitive
ecClpP [3] = target: T2, ecClpP (Escherichia coli, UniProt P0A6G7)
ecClpP [4] = target: T2, ecClpP; remark: listed apart in the source
bsClpYQ = target: T3, bsClpYQ (Bacillus subtilis, UniProt P39070+P39778); conditions: substrate Cbz-GGL-AMC, ATP present; competitive
T3 sequence (P39070 2-181): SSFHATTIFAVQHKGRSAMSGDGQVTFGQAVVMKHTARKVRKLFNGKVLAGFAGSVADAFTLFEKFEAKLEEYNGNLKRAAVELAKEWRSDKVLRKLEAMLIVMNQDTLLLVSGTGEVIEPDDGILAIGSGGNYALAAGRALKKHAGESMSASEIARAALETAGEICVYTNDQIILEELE
T3 sequence (P39778 1-467): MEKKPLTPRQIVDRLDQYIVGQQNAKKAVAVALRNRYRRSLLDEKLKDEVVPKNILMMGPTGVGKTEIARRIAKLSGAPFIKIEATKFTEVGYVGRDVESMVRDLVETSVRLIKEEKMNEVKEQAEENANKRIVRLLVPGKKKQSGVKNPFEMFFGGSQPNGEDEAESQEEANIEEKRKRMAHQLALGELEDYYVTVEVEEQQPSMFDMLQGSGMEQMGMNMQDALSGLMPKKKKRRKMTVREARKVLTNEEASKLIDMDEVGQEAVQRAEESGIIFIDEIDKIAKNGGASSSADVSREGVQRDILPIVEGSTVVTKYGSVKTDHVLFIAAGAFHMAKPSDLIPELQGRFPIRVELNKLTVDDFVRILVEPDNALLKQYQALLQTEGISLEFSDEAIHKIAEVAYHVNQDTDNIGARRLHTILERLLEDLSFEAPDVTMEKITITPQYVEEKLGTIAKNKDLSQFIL

T2 sequence (P0A6G7 15-207): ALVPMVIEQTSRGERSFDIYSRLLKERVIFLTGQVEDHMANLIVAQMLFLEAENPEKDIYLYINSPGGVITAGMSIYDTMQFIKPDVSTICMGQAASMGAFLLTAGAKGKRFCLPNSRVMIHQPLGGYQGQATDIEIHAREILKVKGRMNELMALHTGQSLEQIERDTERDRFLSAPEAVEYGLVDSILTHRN
T1 sequence (P0A6G7 15-207): as above
T1 sequence (P0A6H1 2-424): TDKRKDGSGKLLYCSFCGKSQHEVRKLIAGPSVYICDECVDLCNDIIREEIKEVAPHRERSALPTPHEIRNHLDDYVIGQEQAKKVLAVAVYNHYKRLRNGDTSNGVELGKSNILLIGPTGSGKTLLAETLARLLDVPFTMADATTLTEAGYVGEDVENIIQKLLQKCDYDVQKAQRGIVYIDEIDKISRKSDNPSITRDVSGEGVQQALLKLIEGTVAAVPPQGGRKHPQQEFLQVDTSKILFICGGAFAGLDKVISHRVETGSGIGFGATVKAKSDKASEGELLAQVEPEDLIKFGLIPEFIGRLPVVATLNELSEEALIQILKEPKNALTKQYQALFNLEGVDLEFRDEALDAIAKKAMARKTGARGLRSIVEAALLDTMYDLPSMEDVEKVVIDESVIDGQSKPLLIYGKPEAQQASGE

IC50 (ecClpXP [1]): 48.6 ± 1 µM
Ki (ecClpXP [2]): 36.7 µM
Ki (ecClpP [3]): 58.8 µM
IC50 (ecClpP [4]): 61 ± 1 µM
Ki (bsClpYQ): 3.2 µM
Compound: CCCCCCc1c(O)c(Cl)cc2c1OC1(C2=O)C(Cl)=C(Cl)C(=O)N1C (racemic) [compound 1, 5-chloro-armeniaspirol A]
